Legend:
[1] = system: rats; settings: Jarvis and Kowaluk, 2001; cited from earlier work
[2] = system: mice; experiment: Hotplate assay for acute pain in mice; format: in vivo, mouse
Procedure: The action of P^1-5′-[2′-(O)—,3′-(O)-(benzyl)methylenedioxy]adenosine-P^4-5″-adenosine tetraphosphate, (AP4AmA; AP4A-2′, 3′-mono-acetal with phenylacetaldehyde) on mice in the hotplate model illustrates the analgesic affect of compounds of Formula I. The temperature of the hot plate was set at 55 degrees Celsius. Animals were administered subcutaneously AP4AmA or saline into the dorsal aspect of both hind paws in a volume of 20 microliters. This administration occurred 5 minutes prior to placement on the hotplate. Morphine was administered subcutaneously into the back nape of the mouse's neck in a volume of 10 mL/kg.
The time to hindpaw lick was used as the efficacy endpoint.

[3] = system: mice; experiment: Acetic acid-induced abdominal constriction assay for visceral pain in mice; format: in vivo, mouse
Procedure: (§1) These examples illustrate the effects of AP4AmA in two similar models of abdominal constriction; acetic acid-induced and phenylbenzoquinone-induced constrictions in mice. The method employed in FIGS. 2A and […] was a modification of the abdominal constriction test described by Collier et. al (Collier, H, O. et. al, Br. J. Pharmacol. Chemother. 32:295-310 (1968)).
Briefly, in FIG. 2A, each animal, received an intraperitoneal (i.p.) injection of 0.9% acetic acid in a volume of 10 mL/kg. The mouse was placed in an observation chamber shortly after the acetic acid injection and allowed to explore. Testing started five minutes after the acetic acid injection and consisted of 10 minutes of observation during which the number of abdominal constrictions was counted. Abdominal constriction was defined as a lengthwise stretching of the torso with concave arching of the back. AP4AmA and vehicle were administered i.p., in a volume of 10 mL/kg, 3 minutes prior to the administration of acetic acid while Morphine was administered i.p., in a volume of 10 mL/kg, 25 minutes prior to the administration of acetic acid.

[4] = system: mice; experiment: Phenylbenzoquinone-induced abdominal constriction assay for visceral pain in mice; format: in vivo, mouse
Procedure: as §1
Briefly, in FIG. 2B, each animal received an i.p. injection of 0.02% phenylbenzoquinone in a volume of 10 mL/kg. The mouse was placed in an observation chamber shortly after the acetic acid injection and allowed to explore. Testing started five minutes after the acetic acid injection and consisted of 5 minutes of observation during which the number of abdominal constrictions was counted. Abdominal constriction was defined as a lengthwise stretching of the torso with concave arching of the back. AP4AmA and vehicle were administered i.p., in a volume of 10 mL/kg, 3 minutes prior to the administration of acetic acid while morphine was administered i.p., in a volume of 10 mL/kg, 30 minutes prior to the administration of acetic acid.

[5] = system: mice; experiment: Formalin assay for persistent inflammatory pain (phase II) in mice; format: in vivo, mouse; settings: 5% formalin s.c. right hindpaw; compound s.c. same paw 10 minutes after formalin; 10-30 minutes post formalin; across doses
Procedure: This example illustrates the effect of AP4AmA in mice in phase II of the formalin assay for persistent inflammatory pain. In brief, mice were injected 20 microliters of a 5% full strength formalin solution subcutaneously (s.c.) into the dorsal aspect of the right hindpaw. The mice were returned to the observation cage. The mice were injected 10 microliters s.c. into the same dorsal aspect of the right hindpaw with either vehicle or AP4AmA in varying concentrations 10 minutes after the formalin injection. […]

[6] = system: rats; experiment: Spinal Nerve (L5/L6) Ligation model for neuropathic pain (tactile allodynia, von Frey) in rats; format: in vivo; settings: rat
[7] = mouse hotplate, highest dose of AP4AmA

Row | Compound | antinociceptive effects [1] | time to hindpaw lick, maximal percent effect (MPE %) ([2]; mouse hotplate 55 degrees Celsius, s.c. into both hind paws 5 minutes before, across doses) | time to hindpaw lick, maximal percent effect, compared with morphine [2, 7] | time to hindpaw lick, maximal percent effect, compared with vehicle control [2, 7] | number of abdominal constrictions ([3]; 0.9% acetic acid i.p., compound i.p. 3 minutes prior, across doses) | number of abdominal constrictions, compared with morphine ([3]; acetic acid model, 100 mg/kg AP4AmA i.p.) | number of abdominal constrictions ([4]; 0.02% phenylbenzoquinone i.p., compound i.p. 3 minutes prior, across doses) | number of abdominal constrictions, compared with morphine ([4]; phenylbenzoquinone model, 30 mg/kg AP4AmA i.p.) | duration of time spent licking the inflamed hind paw [5] | gram force required to induce withdrawal of the allodynic hindpaw, compared with morphine ([6]; von Frey filaments) | gram force required to induce withdrawal of the allodynic hindpaw, compared with vehicle control ([6]; von Frey filaments) | reversal of allodynia ([6]; 0.03 mg/mL, 50 microliters subplantar, 60 minutes prior to testing, versus morphine i.p. 16 mg/kg)
1 | TNP-ATP | produce antinociceptive effects in rats | – | – | – | – | – | – | – | – | – | – | –
2 | Nc1ncnc2c1ncn2[C@@H]1O[C@H](COP(=O)(O)OP(=O)(O)OP(=O)(O)OP(=O)(O)OC[C@H]2O[C@@H](n3cnc4c(N)ncnc43)[C@@H]3OC(Cc4ccccc4)O[C@@H]32)[C@@H](O)[C@H]1O (stereo partly drawn) [AP4AmA, P^1-5′-[2′-(O)—,3′-(O)-(benzyl)methylenedioxy]adenosine-P^4-5″-adenosine tetraphosphate] | – | dose dependent pharmacological effect | statistically equivalent to morphine | statistically significant from vehicle control | dose dependent pharmacological effect | not statistically different from morphine | dose dependent pharmacological effect | not statistically different from morphine | dose dependent pharmacological effect | not statistically different from morphine | significantly different from vehicle control | can reverse the allodynia in the rat to an equivalent level as morphine
